Laboratory results from paper PMC10548421, “Anticancer Potential of Diruthenium Complexes with Bridging Hydrocarbyl Ligands from Bioactive Alkynols” (Inorganic Chemistry, 2023).
Read-outs that look alike come from different tables or passages of the source.

What was measured:
[1] = tested on: A2780 human ovarian carcinoma cell line; experiment: MTT in vitro cytotoxicity, A2780; assay type: cell-based
Procedure: (§1) The cytotoxicity assessment was conducted on various human cancer cell lines, including A2780 ovarian carcinoma, A2780R cisplatin-resistant ovarian carcinoma, MCF-7 breast, HOS osteosarcoma, A549 epithelial lung, PANC-1 pancreatic, Caco-2 colorectal, PC-3 prostate adenocarcinoma, and HeLa cervical cell lines. Additionally, the assessment extended to a normal human fetal fibroblast cell line (MRC-5). Cells were obtained from ATCC collection and cultivated according to the producer’s instructions. Stock solutions of the compounds were prepared in DMF immediately before application, and diluted with H2O to achieve the final concentration of 0.1% v/v DMF.[99] The culture media were enriched with 10% fetal calf serum. Subsequently, the cells were exposed to the tested compounds, vehicle (0.1% v/v DMF) and Triton X-100 (1% v/v), during incubation. The conventional MTT assay was carried out following different incubation periods (Tables 5-6). The absorbance was measured at 570 nm by using a spectrophotometer (Infinite M200, Schoeller Instruments, Prague, Czech Republic). The obtained data are presented as the percentage of cell viability with 100% representing negative control treatment (0.1% v/v DMF) and 0% representing the positive control (Triton X-100). The half-maximal inhibitory concentrations (IC50) were determined from dose–response curves using GraphPad Prism 6 software (GraphPad Software, San Diego, USA).

[2] = Octanol/water partition coefficient, shake-flask with UV–vis; assay type: physicochemical; settings: 21 °C
Procedure: Partition coefficients (Pow), defined by the formula Pow = corg/caq, wherein corg and caq denote the molar concentrations of the specific compound in octanol and aqueous phases, respectively, were obtained using the shake-flask method with UV–vis measurements, following a previously described procedure (Table 3).[98] All the operations were carried out at 21 ± 1 °C. The wavelength corresponding to the maximum absorption of each compound within the range 350–430 nm was employed for quantifying using UV–vis techniques.

[3] = Stability in H2O/CH3OH solution (UV–vis); assay type: physicochemical; settings: ca. 5:1 v/v
Procedure: (§2) […] The percentage of remaining complex in the solution was calculated by considering the change in absorbance at the characteristic wavelength. The identical procedure was employed to evaluate stability in MeOH and DMEM (about 1:5 v/v) solutions. DMEM stands for the cell culture medium (containing 1000 mg/L glucose and L-glutamine, excluding sodium bicarbonate and phenol red; reference D2902-Merck).

[4] = tested on: A549 human lung adenocarcinoma cell line; experiment: MTT in vitro cytotoxicity, A549; assay type: cell-based; settings: for IC50: incubation 24 h, mean ± SD
Procedure: as §1

[5] = tested on: HeLa human cervical carcinoma cell line; experiment: MTT in vitro cytotoxicity, HeLa; assay type: cell-based; settings: incubation 24 h, mean ± SD
Procedure: as §1

[6] = tested on: MRC-5 normal human lung fibroblast cell line; experiment: MTT in vitro cytotoxicity, MRC-5 (selectivity); assay type: cell-based; settings: normal cells, MTT, incubation 24 h, mean ± SD
Procedure: as §1

[7] = tested on: PANC-1 human pancreatic carcinoma cell line; experiment: MTT in vitro cytotoxicity, PANC-1; assay type: cell-based; settings: for IC50: incubation 24 h, mean ± SD
Procedure: as §1

[8] = tested on: MCF-7 breast adenocarcinoma cell line; experiment: MTT in vitro cytotoxicity, MCF-7; assay type: cell-based, human; settings: incubation 24 h, mean ± SD
Procedure: as §1

[9] = tested on: HOS human osteosarcoma cell line; experiment: MTT in vitro cytotoxicity, HOS; assay type: cell-based; settings: incubation 24 h, mean ± SD
Procedure: as §1

[10] = tested on: PC-3 human prostate carcinoma cell line; experiment: MTT in vitro cytotoxicity, PC-3; assay type: cell-based; settings: incubation 24 h, mean ± SD
Procedure: as §1

[11] = tested on: A2780R cisplatin-resistant human ovarian carcinoma cell line; experiment: MTT in vitro cytotoxicity, A2780R; assay type: cell-based; settings: incubation 24 h, mean ± SD
Procedure: as §1

[12] = Stability in DMEM/CH3OH solution (UV–vis); assay type: physicochemical; settings: ca. 5:1 v/v
Procedure: as §2

[13] = tested on: Caco-2 human colorectal adenocarcinoma cell line; experiment: MTT in vitro cytotoxicity, Caco-2; assay type: cell-based; settings: for IC50: incubation 24 h, mean ± SD
Procedure: as §1, with “Additionally,” for “The cytotoxicity assessment was conducted on various human cancer cell lines, including A2780 ovarian carcinoma, A2780R cisplatin-resistant ovarian carcinoma, MCF-7 breast, HOS osteosarcoma, A549 epithelial lung, PANC-1 pancreatic, Caco-2 colorectal, PC-3 prostate adenocarcinoma, and HeLa cervical cell lines. Additionally,”

[14] = Cyclic voltammetry in CH2Cl2/[N^nBu4]PF6; assay type: physicochemical; settings: CH2Cl2/[N^nBu4]PF6 0.2 M
Procedure: Cyclic voltammetry measurements were conducted by using a PalmSens4 instrument connected to a computer operating with the PSTrace5 electrochemical software. Prior to use, anhydrous CH2Cl2 (Merck) was stored under argon over 3 Å molecular sieves. Both [N^nBu4]PF6 (electrochemical grade) and FeCp2, obtained from Fluka, were utilized without requiring additional purification. Cyclic voltammetries were carried out under argon by utilizing a 0.2 M solution of [N^nBu4]PF6 in CH2Cl2 as the supporting electrolyte. The working electrode and the counter electrode were comprised of a platinum disk and a platinum gauze, respectively, both enclosed within a glass tube. A leakage-free miniature electrode of Ag/AgCl/KCl (from eDAQ) was employed as a reference. The three-electrode designed cell was subjected to predrying via vacuum heating and then filled with argon gas. The Schlenk-type design of the cell was effective in upholding both anhydrous and anaerobic conditions. Subsequently, a solution of supporting electrolyte, prepared under argon, was introduced into the cell, and the CV of the solvent was acquired. Afterward, the analyte was introduced, and voltammograms were recorded. Under the selected experimental conditions, the one-electron oxidation of ferrocene occurred at a standard potential of E° = +0.45 V relative to Ag/AgCl/KCl.

A2780 cells [15] = experiment: Autophagy analysis (CYTO-ID); assay type: cell-based, human; settings: A2780, complexes 4 μM, cisplatin 15 μM, 24 h
Procedure: (§3) The A2780 ovarian carcinoma cell line was received from Merck (reference 93112519–1VL) and cultured at 37 °C in an environment with 5% CO2. The cultivation was carried out in complete cell culture medium (RPMI-1640 medium, Merck), which was supplemented with 10% fetal bovine serum (FBS, Merck), 1% L-glutamine (Merck) and 1% penicillin–streptomycin–neomycin (PSN, Merck). For the flow cytometry experiments, three independent duplicates were analyzed using a BD FACSVerse flow cytometer (Becton Dickinson, USA). At least 5 × 10^3 events were recorded for each sample. The same procedure was replicated for the experiments described below. Solutions of the complexes were formulated using the stock solutions (Section 5.1).
The potential induction of autophagy by 3a and 3b in A2780 cells was studied with the kit CYTO-ID Autophagy Detection 2.0 (from Enzo Life Sciences, USA), following the protocol provided by the manufacturer. […] The supernatant was collected, cells were washed with warm PBS, detached using 0.25% trypsin-EDTA (Gibco) and resuspended in a cell culture medium. Diluted CYTO-ID Green stain solution (according to the protocol) was used to stain the samples. Following incubation for 30 min in a light-protected environment, the samples were washed with PBS (phosphate-buffered saline). Subsequently, a flow cytometry experiment was conducted. A mixture of chloroquine (10 μM) and rapamycin (0.5 μM) was used as positive control.

A2780 cells [16] = experiment: Apoptosis, Annexin V/propidium iodide flow cytometry; assay type: cell-based, human; settings: A2780, cisplatin 15 μM, 24 h, Annexin V/PI
Procedure: as §3
Apoptosis assay was performed using an Annexin V-FITC/PI commercial kit (V13242, Thermo Fisher Scientific, USA), while caspase 3/7 activation assay was performed with a CellEvent Caspase-3/7 Green Flow Cytometry Assay Kit (C10427, Thermo Fisher Scientific, USA). A2780 cells were seeded in 24-well plates at a density of 5 × 10^4 cells per well; after 24 h, the cells were exposed to 4 μM solution of the selected complex for 24 h. […] The supernatant was collected, cells were washed with PBS (0.1 M, pH 7.4), and trypsin was added (0.25% trypsin-EDTA, GibcoTM). Finally, complete cell culture medium was added to stop the trypsinization, and a final volume of 500 μL was divided into two 250 μL aliquots, following the protocol provided by the manufacturer. Samples were centrifuged, treated with the respective buffers, and then incubated in the dark at room temperature for 10 min (Annexin V-FITC/PI) or at 37 °C for 30 min (CellEventTM Caspase-3/7 Green Detection Reagent).

A2780 cells [17] = experiment: Mitochondrial membrane potential analysis (MITO-ID); assay type: cell-based, human; settings: A2780, complexes 4 μM, cisplatin 15 μM, 24 h
Procedure: as §3
To investigate the effects on mitochondrial membrane potential of A2780 cells, an MITO-ID Membrane potential detection kit (Enzo Life Sciences, USA) was used. Cells were seeded in a 24-well (5 × 10^4 cells/well), and then incubated with 4 μM solution of complexes for 24 h. The supernatant was collected, cells were washed with warm PBS, detached using 0.25% trypsin-EDTA (Gibco) and resuspended in a cell culture medium. Then, samples were stained with diluted MITO-ID MP Detection Reagent (according to the protocol) at RT for 15 min, prior to flow cytometry analysis. A positive control was established by treating the samples with 2 μM carbonyl cyanide 3-chlorophenylhydrazone.

[18] = MTT, incubation 24 h, mean ± SD (Table 5), read-out: IC50 A2780
[19] = time-course experiment (Table 6), 24 h, mean ± SD, read-out: IC50 A2780, incubation time 24 h
[20] = time-course experiment (Table 6), 48 h, mean ± SD, read-out: IC50 A2780, incubation time 48 h
[21] = time-course experiment (Table 6), 72 h, mean ± SD, read-out: IC50 A2780, incubation time 72 h
[22] = vs Ag/AgCl/KCl, peak potential of irreversible process

Compound	IC50 [1, 18] [µM]	IC50 [1, 19] [µM]	IC50 [1, 20] [µM]	IC50 [1, 21] [µM]	Log Pow [2]	residual complex % in H2O/CH3OH ([3]; 2 h) [%]	residual complex % in H2O/CH3OH ([3]; 18 h) [%]	IC50 [4] [µM]	IC50 [5] [µM]	IC50 [6] [µM]	IC50 [7] [µM]	IC50 [8] [µM]	IC50 [9] [µM]	IC50 [10] [µM]	IC50 [11] [µM]	residual complex % in DMEM/CH3OH ([12]; 2 h) [%]	residual complex % in DMEM/CH3OH ([12]; 18 h) [%]	IC50 [13] [µM]	residual complex % in H2O/CH3OH ([3]; 30 min) [%]	also measured
CC12CCC3C(CCC4=CC(=O)CCC43C)C1CCC2=C=[CH][Ru]1(=[C]=O)([CH]2C=CC=C2)[C](=O)[Ru+]1(=[C]=O)[CH]1C=CC=C1.F[B-](F)(F)F (mixture of isomers) [3c, [Ru2Cp2(CO)3{μ–η^1:η^2-CH=C=(testosteronylidene)}]BF4]	6.3 ± 1.3	4.7 ± 1	5.1 ± 0.7	6.8 ± 1.3	0.89 ± 0.12	94	73	20.7 ± 1.4	16.3 ± 1.3	21.5 ± 4	30 ± 0.6	22 ± 4	17.7 ± 2.8	19.6 ± 3.7	11.7 ± 2.4	89	67	42.8 ± 0.8		
O=[C]=[Ru]12([CH]3C=CC=C3)[CH]=C(C3(O)CCCC3)[C](=O)[Ru]1([CH]1C=CC=C1)[C]2=O (stereo not drawn) [2a, [Ru2Cp2(CO)2{μ–η^1:η^3-CH=C(1-cyclopentanol)C(=O)}]]					>1.5	91	23												97	Formal electrode potential, oxidation [14, 22]: +0.55 V; Formal electrode potential, reduction [14, 22]: –1.82 V; Formal electrode potential, oxidation ([14]; vs FeCp2 (in parentheses)): +0.11 V; Formal electrode potential, reduction ([14]; vs FeCp2 (in parentheses)): −2.26 V
CC12CCC(=O)C=C1CCC1C2CCC2(C)C1CCC2(O)C1=[CH][Ru]2(=[C]=O)([CH]3C=CC=C3)[C](=O)[Ru]2([CH]2C=CC=C2)[C]1=O (stereo not drawn) [2c, [Ru2Cp2(CO)2{μ–η^1:η^3-CHC(17-testosterone)C(O)}]]					>1.5	81	14												99	
Cc1ccc(C(C)C)cc1.[Cl][Ru]([Cl])[PH]12CN3CN(CN(C3)C1)C2 [RAPTA-C, [Ru(η^6-p-cymene)Cl2(pta)], reference compound]	> 50	> 50	> 50	> 50				> 50	> 50	> 50	> 50	> 50	> 50	> 50	> 50			> 50		
N.N.[Cl][Pt][Cl] [cisplatin, reference compound]								39.2 ± 3.1	30.7 ± 0.6	> 50	> 50	28.4 ± 2.7	26.3 ± 3.3	> 50	40 ± 3.9					autophagy level (in words) (A2780 cells [15]): significantly enhanced; cells with apoptotic changes (A2780 cells [16]): ca. 40 % of the cells; cell count with damaged mitochondrial membranes (in words) (A2780 cells [17]): notable augmentation
[Ru2Cp2(CO)2{μ–η^1:η^3-CH=C(17α-estradiol)C(=O)}] [2b]	6.2 ± 1.2	5.8 ± 0.4	4.7 ± 0.8	4.2 ± 0.6	>1.5		0	> 50	5.5 ± 0.9	> 50	> 50	19 ± 4.5	24 ± 3.8	36 ± 4.1	7.3 ± 2.4	50	21	> 50	69	activity toward A549 cells (in words) ([4]; 24 h): inactive; activity toward PANC-1 cells (in words) ([7]; 24 h): inactive; activity toward Caco-2 cells (in words) ([13]; 24 h): inactive
